Values after ≈ are worked out from the molar mass of the structure shown. Active and inactive are the calls of the source. The rule behind the calls is not given here. Square brackets hold non-standard residues; d marks the D form. Peptide text beside a SMILES is read from it. ξ: configuration not given here. Ile(3ξ) = CCC(C)[C@H](N)C(=O)O; ξK = NCCCCC(N)C(=O)O
Tests used:
Klebsiella pneumoniae = assay: Antibacterial activity against Klebsiella pneumoniae ATCC 700603 assessed as growth inhibition measured after 18 to 24 hrs by CLSI based broth microdilution method; format: functional; settings: time 18-24 hrs
Erythrocyte = assay: Hemolytic activity against mouse RBC measured after 1 hrs; format: toxicity, cell-based
Pseudomonas aeruginosa = assay: Antibacterial activity against Pseudomonas aeruginosa ATCC 27853 assessed as growth inhibition measured after 18 to 24 hrs by CLSI based broth microdilution method; format: functional; settings: time 18-24 hrs
Escherichia coli [1] = assay: Antibacterial activity against Escherichia coli ATCC 25922 assessed as growth inhibition measured after 18 to 24 hrs by CLSI based broth microdilution method; format: functional; settings: time 18-24 hrs
Staphylococcus aureus [2] = assay: Antibacterial activity against Staphylococcus aureus ATCC 25923 assessed as growth inhibition measured after 18 to 24 hrs by CLSI based broth microdilution method; format: functional; settings: time 18-24 hrs
Bacillus subtilis = assay: Antibacterial activity against Bacillus subtilis ATCC 23857 assessed as growth inhibition measured after 18 to 24 hrs by CLSI based broth microdilution method; format: functional; settings: time 18-24 hrs
Staphylococcus aureus [3] = assay: Antimicrobial activity against Staphylococcus aureus ATCC 25923 assessed as fold increase in MIC in presence of KCl; format: functional
Escherichia coli [4] = assay: Antimicrobial activity against Escherichia coli ATCC 25922 in presence of MgCl2; format: functional, organism-based
Escherichia coli [5] = assay: Antimicrobial activity against Escherichia coli ATCC 25922 in presence of KCl; format: functional, organism-based
Staphylococcus aureus [6] = assay: Antimicrobial activity against Staphylococcus aureus ATCC 25923 assessed as increase fold in increase MIC in presence of FeCl3; format: functional
Escherichia coli [7] = assay: Antimicrobial activity against Escherichia coli ATCC 25922 in presence of NaCl; format: functional, organism-based
Staphylococcus aureus [8] = assay: Antimicrobial activity against Staphylococcus aureus ATCC 25923 assessed as fold increase in MIC in presence of NaCl; format: functional
Staphylococcus aureus [9] = assay: Antimicrobial activity against Staphylococcus aureus ATCC 25923 assessed as fold increase in MIC in presence of MgCl2; format: functional
[10] = Cytotoxicity against human Glomerular mesenchymal cell assessed as reduction in cell viability at 0 to 128 uM incubated for 1 hr by Resazurin cell viability kit; format: toxicity, cell-based; settings: glomerular mesenchymal cells, dose 0-128 µM
Staphylococcus aureus [11] = assay: Antimicrobial activity against Staphylococcus aureus ATCC 25923 in presence of MgCl2; format: functional, organism-based
Staphylococcus aureus [12] = assay: Antibacterial activity against Staphylococcus aureus ATCC 25923 assessed as fold increase in MIC measured after 15 passages by resistance development assay; format: functional
Staphylococcus aureus [13] = assay: Antimicrobial activity against Staphylococcus aureus ATCC 25923 in presence of NaCl; format: functional, organism-based
Staphylococcus aureus [14] = assay: Antimicrobial activity against Staphylococcus aureus ATCC 25923 in presence of KCl; format: functional, organism-based
Staphylococcus aureus [15] = assay: Antimicrobial activity against Staphylococcus aureus ATCC 25923 in presence of FeCl3; format: functional, organism-based
Cell membrane [16] = assay: Induction of cell membrane disruption in Escherichia coli ATCC 25922 assessed as increase in PI uptake measured after 30 to 120 mins by propidium iodide staining based FACS flow cytometry analysis (reference value: 6.0 %); format: subcellular; settings: time 30-120 min
Escherichia coli [17] = assay: Antibacterial activity against Escherichia coli ATCC 25922 assessed as fold increase in MIC measured after 15 passages by resistance development assay relative to control; format: functional
[18] = Stability of compound in serum measured after 1 to 6 hrs by RP-HPLC analysis; format: ADME, cell-free; settings: time 1-6 hrs
Cell membrane [19] = assay: Induction of cell membrane disruption in Staphylococcus aureus ATCC 25923 assessed as increase in PI uptake measured after 30 to 120 mins by propidium iodide staining based FACS flow cytometry analysis (reference value: 15%); format: subcellular; settings: time 30-120 min

| Compound | MIC (Klebsiella pneumoniae) | MHC10 (Erythrocyte) | MIC (Pseudomonas aeruginosa) | MIC (Escherichia coli [1]) | MIC (Staphylococcus aureus [2]) | MIC (Bacillus subtilis) | also measured |
| --- | --- | --- | --- | --- | --- | --- | --- |
| CC[C@H](C)[C@H](NC(=O)[C@@H]1CCCN1C(=O)[C@H](CC(C)C)NC(=O)[C@@H](N)Cc1ccccc1)C(=O)N[C@H](C(=O)N[C@@H](CCC(=O)O)C(=O)N[C@@H](CCCCN)C(=O)N[C@@H](CC(C)C)C(=O)N[C@@H](CC(C)C)C(=O)N[C@@H](CO)C(=O)NCC(=O)N[C@@H](CC(C)C)C(=O)N[C@@H](CC(C)C)C(N)=O)C(C)C (H-FLPIVEKLLSGLL-NH2) | > 128 µM | > 256 µM | > 128 µM | 64 µM (≈ 92.2 µg/mL) | > 128 µM | > 128 µM | – |
| CC(C)C[C@H](NC(=O)[C@H](CC(C)C)NC(=O)[C@H](CCCCN)NC(=O)[C@H](CCC(=O)O)NC(=O)[C@H](CC(C)C)NC(=O)[C@H](CC(C)C)NC(=O)[C@H](CCCCN)NC(=O)[C@H](C)NC(=O)[C@@H](NC(=O)[C@H](CCCCN)NC(=O)[C@@H]1CCCN1C(=O)[C@H](CC(C)C)NC(=O)[C@@H](N)Cc1ccccc1)C(C)C)C(N)=O (H-FLPKVAKLLEKLL-NH2) | 32 µM (≈ 48.4 µg/mL) | > 256 µM | 16 µM (≈ 24.2 µg/mL) | 8 µM (≈ 12.1 µg/mL) | 8 µM (≈ 12.1 µg/mL) | 8 µM (≈ 12.1 µg/mL) | fold change (FC) (Staphylococcus aureus [3]): 2; Activity (Escherichia coli [4]): Active; Activity (Escherichia coli [5]): Active; fold change (FC) (Staphylococcus aureus [6]): 2; Activity (Escherichia coli [7]): Active; fold change (FC) (Staphylococcus aureus [8]): 2; fold change (FC) (Staphylococcus aureus [9]): 2; CC50 at 1 h [10]: > 128 µM |
| CC(C)C[C@H](NC(=O)[C@H](CC(C)C)NC(=O)CNC(=O)[C@H](CCC(=O)O)NC(=O)[C@H](CC(C)C)NC(=O)[C@H](CC(C)C)NC(=O)[C@H](CCCCN)NC(=O)[C@H](CCCCN)NC(=O)[C@@H](NC(=O)[C@H](CCCCN)NC(=O)[C@@H]1CCCN1C(=O)[C@H](CC(C)C)NC(=O)[C@@H](N)Cc1ccccc1)C(C)C)C(N)=O (H-FLPKVKKLLEGLL-NH2) | 64 µM (≈ 95.8 µg/mL) | > 256 µM | 32 µM (≈ 47.9 µg/mL) | 16 µM (≈ 24 µg/mL) | 128 µM (≈ 192 µg/mL) | 128 µM (≈ 192 µg/mL) | – |
| CC(C)C[C@H](NC(=O)[C@H](CC(C)C)NC(=O)C(CCCCN)NC(=O)[C@H](CCC(=O)O)NC(=O)[C@H](CC(C)C)NC(=O)[C@H](CC(C)C)NC(=O)[C@H](CCCCN)NC(=O)[C@H](CCCCN)NC(=O)[C@@H](NC(=O)[C@H](CCCCN)NC(=O)[C@@H]1CCCN1C(=O)[C@H](CC(C)C)NC(=O)[C@@H](N)Cc1ccccc1)C(C)C)C(N)=O (stereo partly drawn) (H-FLPKVKKLLE[ξK]LL-NH2) | 16 µM (≈ 25.1 µg/mL) | > 256 µM | 16 µM (≈ 25.1 µg/mL) | 8 µM (≈ 12.5 µg/mL) | 32 µM (≈ 50.2 µg/mL) | 32 µM (≈ 50.2 µg/mL) | – |
| CC(C)C[C@H](NC(=O)[C@H](CC(C)C)NC(=O)[C@H](CCC(=O)O)NC(=O)[C@H](CCCCN)NC(=O)[C@H](CC(C)C)NC(=O)[C@H](CC(C)C)NC(=O)[C@H](CCCCN)NC(=O)[C@H](CCCCN)NC(=O)[C@@H](NC(=O)[C@H](CCCCN)NC(=O)[C@@H]1CCCN1C(=O)[C@H](CC(C)C)NC(=O)[C@@H](N)Cc1ccccc1)C(C)C)C(N)=O (H-FLPKVKKLLKELL-NH2) | 16 µM (≈ 25.1 µg/mL) | > 256 µM | 16 µM (≈ 25.1 µg/mL) | 16 µM (≈ 25.1 µg/mL) | 32 µM (≈ 50.2 µg/mL) | 8 µM (≈ 12.5 µg/mL) | – |
| CC(C)C[C@H](NC(=O)[C@H](CC(C)C)NC(=O)[C@H](CCC(=O)O)NC(=O)[C@H](CO)NC(=O)[C@H](CC(C)C)NC(=O)[C@H](CC(C)C)NC(=O)[C@H](CCCCN)NC(=O)[C@H](CCCCN)NC(=O)[C@@H](NC(=O)[C@H](CCCCN)NC(=O)[C@@H]1CCCN1C(=O)[C@H](CC(C)C)NC(=O)[C@@H](N)Cc1ccccc1)C(C)C)C(N)=O (H-FLPKVKKLLSELL-NH2) | 64 µM (≈ 97.7 µg/mL) | > 256 µM | 32 µM (≈ 48.9 µg/mL) | 32 µM (≈ 48.9 µg/mL) | 64 µM (≈ 97.7 µg/mL) | 16 µM (≈ 24.4 µg/mL) | – |
| CCC(C)[C@H](NC(=O)[C@@H]1CCCN1C(=O)[C@H](CC(C)C)NC(=O)[C@@H](N)Cc1ccccc1)C(=O)N[C@H](C(=O)N[C@@H](C)C(=O)N[C@@H](CCCCN)C(=O)N[C@@H](CC(C)C)C(=O)N[C@@H](CC(C)C)C(=O)N[C@@H](CO)C(=O)N[C@@H](CCCCN)C(=O)N[C@@H](CC(C)C)C(=O)N[C@@H](CC(C)C)C(N)=O)C(C)C (stereo partly drawn) (H-FLP[Ile(3ξ)]VAKLLSKLL-NH2) | > 128 µM | 17.97 µM | > 128 µM | > 128 µM | 8 µM (≈ 11.6 µg/mL) | 4 µM (≈ 5.82 µg/mL) | – |
| CCC(C)[C@H](NC(=O)[C@@H]1CCCN1C(=O)[C@H](CC(C)C)NC(=O)[C@@H](N)Cc1ccccc1)C(=O)N[C@H](C(=O)N[C@@H](CCCCN)C(=O)N[C@@H](CCCCN)C(=O)N[C@@H](CC(C)C)C(=O)N[C@@H](CC(C)C)C(=O)N[C@@H](CCC(=O)O)C(=O)N[C@@H](CCCCN)C(=O)N[C@@H](CC(C)C)C(=O)N[C@@H](CC(C)C)C(N)=O)C(C)C (stereo partly drawn) (H-FLP[Ile(3ξ)]VKKLLEKLL-NH2) | 16 µM (≈ 24.8 µg/mL) | 42.55 µM | 8 µM (≈ 12.4 µg/mL) | 8 µM (≈ 12.4 µg/mL) | 4 µM (≈ 6.21 µg/mL) | 4 µM (≈ 6.21 µg/mL) | – |
| CCC(C)[C@H](NC(=O)[C@@H]1CCCN1C(=O)[C@H](CC(C)C)NC(=O)[C@@H](N)Cc1ccccc1)C(=O)N[C@H](C(=O)N[C@@H](CCCCN)C(=O)N[C@@H](CCCCN)C(=O)N[C@@H](CC(C)C)C(=O)N[C@@H](CC(C)C)C(=O)N[C@@H](CCCCN)C(=O)N[C@@H](CCC(=O)O)C(=O)N[C@@H](CC(C)C)C(=O)N[C@@H](CC(C)C)C(N)=O)C(C)C (stereo partly drawn) (H-FLP[Ile(3ξ)]VKKLLKELL-NH2) | 16 µM (≈ 24.8 µg/mL) | 53.73 µM | 8 µM (≈ 12.4 µg/mL) | 8 µM (≈ 12.4 µg/mL) | 4 µM (≈ 6.21 µg/mL) | 4 µM (≈ 6.21 µg/mL) | – |
| CO[C@H]1/C=C/O[C@@]2(C)Oc3c(C)c(O)c4c(O)c(c(/C=N/N5CCN(C)CC5)c(O)c4c3C2=O)NC(=O)/C(C)=C\C=C\[C@H](C)[C@H](O)[C@@H](C)[C@@H](O)[C@@H](C)[C@H](OC(C)=O)[C@@H]1C [RIFAMPIN] | 32 µM (≈ 26.3 µg/mL) | – | 32 µM (≈ 26.3 µg/mL) | 4 µM (≈ 3.29 µg/mL) | < 1 µM | < 1 µM | Activity (Staphylococcus aureus [11]): Active; fold change (FC) (Staphylococcus aureus [12]): 4096; Activity (Staphylococcus aureus [13]): Active; Activity (Staphylococcus aureus [14]): Active; Activity (Staphylococcus aureus [15]): Active; Activity (Cell membrane [16]): 17.4%; fold change (FC) (Escherichia coli [17]): 16; Stability [18]: Stable; Activity (Cell membrane [19]): 3.45% |
| GENTAMICIN | – | – | – | – | – | – | fold change (FC) (Staphylococcus aureus [12]): 512; fold change (FC) (Escherichia coli [17]): 128 |
